{
  "source": "patent US9352010B2",
  "about": "“Treatment of HIV-1 infection and AIDS” (The J. David Gladstone Institutes, priority 2011, dated 2016)",
  "key": {"HIV-1": {"test_system": "HIV-1", "assay": "microbe, parasite or virus in culture", "procedure": "(A and C) Concentrations of T20 that block viral infection. […] One hour before incubation with the virus, cells were pretreated with T20 or left untreated. At 12 hours, cells were washed extensively and cultured under the same conditions. On day 9, the viral concentration was determined using a p24gag FLAQ assay. The amount of p24gag accumulated in the absence of drugs by each viral clone (A) or by SKY (C) was defined as 100%. (B and D) Effect of T20 on indirect killing. CFSE-labeled cells were co-cultured with cells infected with the indicated viral clones in the presence of 5 μM AZT and the indicated concentrations of T20. After 6 days, indirect killing in the mixed cultures was assessed. The number of viable CFSE-positive CD4 T-cells co-cultured with uninfected cells in the presence of AZT was defined as 100% (not shown). To allow successful initial infection the GIA-SKY mutants were pseudotyped with the VSV-G envelope. NL4-3, WT lab-adapted virus; WEAU 16-8, primary virus; SIM, T20-resistant virus; GIA-SKY, T20-dependent virus; GIA and SKY, single-domain mutant viruses. Representative data from three independent experiments with different donors are shown. See also FIG. 5, below.\nHLACs were infected with viruses derived from the indicated HIV proviral clones in the presence of the indicated concentrations of AZT or in the absence of drugs. Six days after infection the amount of p24^gag in the medium was determined by FLAQ assay. The amount of p24^gag in the medium after infection wash (day 0) was defined as 0%. […] Viral incorporation of endogenous A3G was measured by immunoblot analysis of purified NL4-3 and Δvif NL4-3 virions harvested from 1 ml of supernatant from infected HLACs. Doses reflect 1:10 dilutions. […] Resting or activated CFSE-labeled cells were co-cultured with cells infected with WT or Δvif NL4-3 in the presence or absence of the following drugs, AZT (5 μM), AMD3100 (250 nM), the NNRTIs Efavirenz (100 nM), and Nevirapine (1 μM), or the integration inhibitors Raltegravir (30 μM) and 118-D-24 (60 μM). Data are representative of four independent experiments performed with cells from four different donors. (E) A method to assess indirect killing in HLAC with non-infectious HIV-1 clones. Fresh human tonsil is processed into HLAC and cells are cultured in suspension. At the same time 293T-cells are transfected with 1 μg HIV-1 DNA in a 24-well plate. After 12 hours, 293T-cells are washed and overlayed with 3×10^6 HLAC cells in RPMI in the presence of the indicated drugs. Virus-producing 293T-cells directly interact with target overlaying HLAC cells. After 24 hours, the HLAC suspensions are collected from wells and analyzed by flow cytometry. […] HLAC were cultured with the indicated drugs 3 hours before co-culture with 293T-cells. Percentages are normalized to the number of viable CD4 T-cells in HLAC overlaying non-transfected 293T-cells in the presence of AZT, as depicted by (*). Error bars represent standard error of the mean of three experiments performed using cells from three different HLAC donors."}, "[1]": {"test_system": "HIV-1 reverse transcription products", "assay": "Taqman QPCR of HIV-1 reverse transcription products in infected CD4 T-cells", "format": "cell-based, human", "conditions": "16 hours after infection with NL4-3, versus untreated cells", "procedure": "Fresh HLACs were washed once with PBS and resuspended with PBS containing 5 mM EDTA and 2% fetal bovine serum. CD4 T-cells were isolated from HLACs by positive selection on CD4 microbeads (Miltenyi) and cultured overnight in 96-well U-bottomed plates (1×10^6 cells/well) as described above, and AZT was added to the indicated cell samples. Next day, the rest of the drugs were added to the indicated cell samples at concentrations as described above. Cells were chilled on ice for 15 min and DNAse-treated (Ambion, 60 U/ml, 1 hour, 37° C.) NL4-3 or Δvif NL4-3 virions (200 ng/well) were added. After a 1 hour incubation with virions on ice, cells were spinoculated at 1200 g for 2 hours at 4° C., incubated at 37° C. for 2 hours, washed three times with cold PBS, and resuspended in fresh RPMI with the indicated drugs. Eight or 16 hours after spinoculation, cell pellets were frozen at −80° C. Total DNA was purified from each cell pellet with a DNAse kit (Qiagen). Primer and probe sequences used to detect reverse transcription products are provided herein. QPCR reactions were performed in triplicates in TaqMan universal PCR master mix using each primer at 3.75 μM and probe at 2.5 μM. After 15 minutes at 95° C., reactions underwent 50 cycles of 15 sec at 95° C. followed by 1 min at 60° C. in an ABI Prism 7900HT (Applied Biosystems).\nNext the status of HIV-1 reverse transcription in tonsillar CD4 T-cells after infection was examined. […] Taqman-based quantitative real-time PCR (QPCR) was used to quantify the synthesis of reverse transcription products in isolated CD4 T-cells from HLAC 16 hours after infection with NL4-3. Specific QPCR primers and probes were designed (Table 1) to monitor sequential steps in reverse transcription including generation of strong-stop DNA, first template exchange (Nef), and DNA strand elongation (Env) (FIG. 10A)"}, "[2]": {"test_system": "lactate dehydrogenase (LDH) release", "assay": "LDH release from HIV-1-infected HLACs (pyroptosis)", "format": "cell-based, human", "conditions": "caspase inhibitors 50 μM or 100 μM, 3 days, FIG. 16C", "procedure": "Caspase-1 activation can lead to a highly inflammatory form of cell death called pyroptosis. To gain insight into how CD4 T cells die, it was determined whether HIV infection in CD4 T cells induce pyroptosis cell death, as measured by lactate dehydrogenase (LDH) release. HLACs were left uninfected or infected with NL4-3 in the presence of no drugs, efavirenz, AMD3100, or caspase inhibitors (50 μM or 100 μM), as indicated in FIG. 16C. After 3 days, the supernatants were assayed for the cytosolic enzyme lactate dehydrogenase (LDH) and the LDH released by dying cells was quantified."}},
  "data": [
    {"compound": "enfuvirtide", "values": [
      {"measurement": "concentration at which inhibition of infection begins", "setting": "HIV-1", "value": "> 2", "unit": "µg/mL"},
      {"measurement": "concentration giving complete inhibition of infection", "setting": "HIV-1", "value": 0.1, "unit": "µg/mL"},
      {"measurement": "concentration required for complete inhibition of infection", "setting": "HIV-1", "value": 10, "unit": "µg/mL"},
      {"measurement": "inhibition of infection", "setting": "HIV-1", "value": "did not inhibit infection"},
      {"measurement": "replication of T20-dependent mutant GIA-SKY", "setting": "HIV-1", "value": "readily replicated"}
    ]},
    {"compound": "Cc1cn([C@H]2C[C@H](N=[N+]=[N-])[C@@H](CO)O2)c(=O)[nH]c1=O", "note": "[AZT]", "values": [
      {"measurement": "IC50", "setting": "HIV-1; Human immunodeficiency virus 1, in Homo sapiens, read-out: concentration achieving half maximal inhibitory effect", "value": 500, "unit": "nM"},
      {"measurement": "concentration that blocks viral replication", "setting": "HIV-1; NL4-3-infected and AZT-sensitive clones", "value": 0.5, "unit": "µM"},
      {"measurement": "reverse transcription products corresponding to strong-stop DNA", "setting": "[1]", "value": "similar"}
    ]},
    {"compound": "c1cc(CN2CCCNCCNCCCNCC2)ccc1CN1CCCNCCNCCCNCC1", "note": "[AMD3100]", "values": [
      {"measurement": "LDH release from HIV-1 infected cells", "setting": "[2]", "value": "LDH was not released"},
      {"measurement": "reverse transcription products corresponding to strong-stop DNA", "setting": "[1]", "value": "greatly reduced"}
    ]},
    {"compound": "O=C1Nc2ccc(Cl)cc2[C@@](C#CC2CC2)(C(F)(F)F)O1", "note": "[efavirenz]", "values": [
      {"measurement": "LDH release from HIV-1 infected cells", "setting": "[2]", "value": "LDH was not released"}
    ]}
  ]
}
